One assay has as its system Candida albicans. The assay can be described thus: Antifungal activity against Candida albicans. Format: functional.
For the next assay, the system named is Cryptococcus neoformans. The experiment in a line: Antifungal activity against Cryptococcus neoformans. Format: functional.

Values after ≈ are worked out from the molar mass of the structure shown.

As a reminder, the MIC is the smallest concentration in the dilution series that meets the test's criterion for growth inhibition. Read a low MIC as a more susceptible organism. For the compound `C[C@@H]1O[C@@H](O[C@H]2[C@H](O[C@H]3CC[C@@]4(C)[C@@H](CC[C@]5(C)[C@@H]4CC=C4[C@@H]6CC(C)(C)CC[C@]6(C(=O)O)CC[C@]45C)[C@]3(C)CO)OC[C@H](O)[C@@H]2O)[C@H](O)[C@H](O)[C@H]1O` [ALPHA-HEDERIN], the MIC against Candida albicans was 6.25 µg/mL (≈ 8.32 µM); in the assay on Cryptococcus neoformans it was 25 µg/mL (≈ 33.3 µM).
